In patent US7632850B2, “Arylalkylcarbamate derivatives and production thereof” (Sanofi-aventis, priority 2003, dated 2009):

Key:
[1] = target: T1, FAAH (Fatty Acid Amide Hydrolase) (Mus musculus, UniProt O08914); test: radioenzymatic assay of anandamide hydrolysis by FAAH (mouse brain membrane homogenates); type: biochemical; conditions: concentration inhibiting by 50% the control enzyme activity of FAAH; mouse brain membranes, 10 μM anandamide, 15 minutes at 25° C.
T1 construct: Membrane homogenates are prepared at the time of use by homogenizing the tissues in a Polytron; from tissue; host or cells: mouse brain (minus the cerebellum), membrane homogenate
T1 sequence (O08914 1-579): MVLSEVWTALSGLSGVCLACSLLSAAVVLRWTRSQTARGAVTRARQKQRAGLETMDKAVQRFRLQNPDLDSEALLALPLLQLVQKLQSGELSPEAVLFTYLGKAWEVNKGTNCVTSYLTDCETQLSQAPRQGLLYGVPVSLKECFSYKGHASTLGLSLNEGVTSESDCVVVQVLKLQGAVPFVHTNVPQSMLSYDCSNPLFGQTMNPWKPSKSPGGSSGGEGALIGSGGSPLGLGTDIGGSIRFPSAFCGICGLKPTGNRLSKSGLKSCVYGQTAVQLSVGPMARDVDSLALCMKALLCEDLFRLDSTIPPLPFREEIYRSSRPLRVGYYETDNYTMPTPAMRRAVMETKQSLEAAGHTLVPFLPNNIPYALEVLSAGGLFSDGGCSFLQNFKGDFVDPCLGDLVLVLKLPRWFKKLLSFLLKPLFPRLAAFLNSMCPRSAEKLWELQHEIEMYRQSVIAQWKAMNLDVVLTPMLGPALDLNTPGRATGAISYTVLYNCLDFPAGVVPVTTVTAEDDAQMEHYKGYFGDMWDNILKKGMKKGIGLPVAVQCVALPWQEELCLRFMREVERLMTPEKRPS
Procedure: The compounds of the invention were subjected to pharmacological tests permitting determination of their inhibitory effect on the enzyme FAAH (Fatty Acid Amide Hydrolase).
Accordingly, mouse brains (minus the cerebellum) are removed and stored at −80° C. Membrane homogenates are prepared at the time of use by homogenizing the tissues in a Polytron in a 10 mM Tris HCl buffer (pH 8.0) containing 150 mM NaCl and 1 mM EDTA. The enzyme reaction is subsequently conducted in 70 μl of buffer, containing bovine serum albumin without fatty acids (1 mg/ml). In succession, the test compounds, at various concentrations, anandamide [ethanolamine 1-^3H] (specific activity: 15-20 Ci/mmol) diluted to 10 μM with cold anandamide, and the membrane preparation (400 μg of frozen tissue per assay) are added. After 15 minutes at 25° C., the enzyme reaction is terminated by adding 140 μl of chloroform/methanol. (2:1). The mixture is stirred for 10 minutes then centrifuged for 15 minutes at 3500 g. An aliquot (30 μl) of the aqueous phase, containing the ethanolamine [1-^3H], is counted by liquid scintillation.

male OF1 mice = test: analgesia test: abdominal stretches induced by PBQ (phenylbenzoquinone) i.p.; type: in vivo
Procedure: The in vivo activity of the compounds of the invention was evaluated in an analgesia test. Accordingly, intraperitoneal (i.p.) administration of PBQ (phenylbenzoquinone, 2 mg/kg in a 0.9% sodium chloride solution containing 5% of ethanol) to male OF1 mice weighing 25 to 30 g causes abdominal stretches, on average 30 twists or contractions during the period from 5 to 15 minutes after injection. The test compounds are administered orally in suspension in Tween 80 at 0.5%, 60 minutes or 120 minutes before the administration of PBQ.

Structure (SMILES) | melting point [°C] | IC50 [1] [nM] | Reduction in number of stretches (%) (male OF1 mice; (b) 3 mg/kg p.o. at 1 hour) | Reduction in number of stretches (%) (male OF1 mice; (a) 1 mg/kg p.o. at 2 hours)
NC(=O)COC(=O)NCc1ccc(-n2cnc(-c3ccccc3)c2)cc1 [Compound 84, 2-amino-2-oxoethyl [4-(4-phenyl-1H-imidazol-1-yl)phenyl]methylcarbamate] | 200 to 203 | – | – | –
NC(=O)COC(=O)NCC1(c2ccc(-c3ccc(F)cc3)cc2)CC1 [Compound 145, 2-amino-2-oxoethyl 1-(4′-fluoro-1,1′-biphenyl-4-yl)cyclopropylmethylcarbamate] | 139 to 141 | – | – | –
CNC(=O)COC(=O)NCCc1ccc(-c2ccc(F)cc2)cc1F [Compound 141, 2-(methylamino)-2-oxoethyl 2-(3,4′-difluoro-1,1′biphenyl-4-yl)ethylcarbamate] | 164 to 166 | – | – | –
CNC(=O)COC(=O)NCc1ccc(-c2ccccc2)cc1 [Compound 1, 2-(methylamino)-2-oxoethyl 1,1′-biphenyl-4-ylmethylcarbamate] | 189 to 190 | – | – | –
CNC(=O)COC(=O)NCCc1ccc(Oc2ccccc2)cc1 [Compound 194] | 111 to 113 | 142 | −55% (b) | –
CNC(=O)COC(=O)NCc1ccc(-c2ccc(F)cc2)cc1Cl [Compound 9, 2-(methylamino)-2-oxoethyl (3-chloro-4′-fluoro-1,1′-biphenyl-4-yl)methylcarbamate] | 170 to 172 | – | – | –
CNC(=O)COC(=O)NCCc1ccc(C(F)(F)F)cc1 [Compound 125, 2-(methylamino)-2-oxoethyl 2-[4-(trifluoromethyl)phenyl]ethylcarbamate] | 140 to 142 | – | – | –
CNC(=O)COC(=O)NCCc1cccc(Oc2ccccc2)c1 [Compound 197, 2-(methylamino)-2-oxoethyl 2-(3-phenyloxyphenyl)ethylcarbamate] | 82 to 84 | – | – | –
CNC(=O)COC(=O)NCCc1ccc(Oc2ccc(Cl)cc2)cc1 [Compound 196, 2-(methylamino)-2-oxoethyl 2-{4-[(4-chlorophenyl)oxy]phenyl}ethylcarbamate] | 133 to 135 | – | – | –
CNC(=O)COC(=O)NCc1ccc(-c2ccccn2)cc1 [Compound 81, 2-(methylamino)-2-oxoethyl 4-pyridin-2-ylbenzylcarbamate] | 151 to 153 | – | – | –
CNC(=O)COC(=O)NCCc1ccc(-c2ccc(Cl)cc2Cl)cc1 [Compound 178] | 147 to 149 | 140 | −53% (b) | –
CNC(=O)COC(=O)NCCc1ccc(-c2ccc(F)c(Cl)c2)cc1 [Compound 192, 2-(methylamino)-2-oxoethyl 2-(3′-chloro-4′-fluoro-1,1′-biphenyl-4-yl)ethylcarbamate] | 178 to 180 | 102 | – | −43% (a)
CNC(=O)COC(=O)NCCc1ccc(-c2cccc(C#N)c2)cc1 [Compound 171, 2-(methylamino)-2-oxoethyl 2-(3′-cyano-1,1′-biphenyl-4-yl)ethylcarbamate] | 157 to 159 | 108 | – | −51% (a)
CNC(=O)COC(=O)NCCc1ccc(-c2ccc(Cl)cc2)cc1 [Compound 150, 2-(methylamino)-2-oxoethyl 2-(4′-chloro-1,1′-biphenyl-4-yl)ethylcarbamate] | 186 to 188 | 63 | −57% (b) | –
NC(=O)COC(=O)NCCc1ccc(-n2ccc3cccnc32)cc1 [Compound 224] | 110 to 112 | – | – | –
